Measured values: publication PMC12216759 (Nature Communications, 2025)

Columns and labels:
Format in all cases: biochemical
[1] = target: T1, SHV-5 (Enterobacter cloacae, UniProt Q6QNE1); assay: steady-state hydrolysis kinetics of purified enzyme
[2] = target: T2, SHV-5 M69I (Enterobacter cloacae, UniProt Q6QNE1, M65I); assay: as above
[3] = target: T1, SHV-5; assay: as above; remark: listed apart in the source
[4] = target: T2, SHV-5 M69I; assay: hydrolysis kinetics of purified enzyme
[5] = target: T1, SHV-5; assay: steady-state hydrolysis kinetics of purified enzyme; remark: listed apart in the source
[6] = target: T2, SHV-5 M69I; assay: as above; remark: listed apart in the source

CO/N=C(\C(=O)N[C@@H]1C(=O)N2C(C(=O)O)=C(COC(C)=O)CS[C@H]12)c1csc(N)n1 [cefotaxime]
steady-state hydrolysis kinetics of purified enzyme (UV, 264 nm) [1]: 8 × 10^5 M^−1s^−1 (kcat/KM)
steady-state hydrolysis kinetics of purified enzyme (UV, 264 nm) [2]: 2.3 × 10^4 M^−1s^−1 (kcat/KM)

CC(C)(O/N=C(\C(=O)N[C@@H]1C(=O)N2C(C(=O)[O-])=C(C[N+]3(CCNC(=O)c4ccc(O)c(O)c4Cl)CCCC3)CS[C@H]12)c1csc(N)n1)C(=O)O [cefiderocol]
steady-state hydrolysis kinetics of purified enzyme (UV, 259 nm) [3]: 9 × 10^3 M^−1s^−1 (kcat/KM)
hydrolysis kinetics of purified enzyme (UV, 259 nm); KM too high to determine [4]: 1.2 × 10^3 M^−1s^−1 (kcat/KM)

CC(=O)OCC1=C(C(=O)O)N2C(=O)[C@@H](NC(=O)Cc3cccs3)[C@H]2SC1 [cephalothin]
steady-state hydrolysis kinetics of purified enzyme (UV, 262 nm) [5]: 1 ×10^6 M^−1s^−1 (kcat/KM)
steady-state hydrolysis kinetics of purified enzyme (UV, 262 nm) [6]: 8 × 10^4 M^−1s^−1 (kcat/KM)
